Measurements published in ChEMBL document CHEMBL5724914, “Linking interpersonal differences in gut microbiota composition and drug biotransformation activity” (2024).

Key:
Conditions in all cases: 2 µM
[1] = (§1) The drug is tested on Z-012 corresponding to metagenome with ENA study accession number: PRJEB37062 and ENA sample accession number: ERS12561812 for biotransformation under anaerobic condition. The drug concentrations were measured over 9 timepoints collected between 0 and 24 hours of incubation by liquid-chromatography-coupled mass spectrometry (LC–MS)
[2] = (§2) The drug is tested on Z-018 corresponding to pig gut metagenome with ENA study accession number: PRJEB37062 and ENA sample accession number: ERS12561817 for biotransformation under anaerobic condition. The drug concentrations were measured over 9 timepoints collected between 0 and 24 hours of incubation by liquid-chromatography-coupled mass spectrometry (LC–MS)
[3] = as §2, with “Z-014” for “Z-018”, “rat” for “pig”, “ERS12561814” for “ERS12561817”
[4] = as §1, with “Z-005” for “Z-012”, “ERS12561805” for “ERS12561812”
[5] = as §1, with “Z-023” for “Z-012”, “ERS12561822” for “ERS12561812”
[6] = as §2, with “Z-003” for “Z-018”, “ERS12561803” for “ERS12561817”
[7] = as §2, with “Z-009” for “Z-018”, “ERS12561809” for “ERS12561817”
[8] = as §2, with “Z-001” for “Z-018”, “mouse” for “pig”, “ERS12561801” for “ERS12561817”
[9] = as §2, with “Z-030” for “Z-018”, “mouse” for “pig”, “ERS12561829” for “ERS12561817”
[10] = as §2, with “Z-020” for “Z-018”, “rabbit” for “pig”, “ERS12561819” for “ERS12561817”
[11] = as §2, with “Z-002” for “Z-018”, “rabbit” for “pig”, “ERS12561802” for “ERS12561817”
[12] = as §2, with “Z-013” for “Z-018”, “rabbit” for “pig”, “ERS12561813” for “ERS12561817”
[13] = as §1, with “Z-021” for “Z-012”, “ERS12561820” for “ERS12561812”
[14] = as §2, with “Z-028” for “Z-018”, “mouse” for “pig”, “ERS12561827” for “ERS12561817”
[15] = as §1, with “Z-004” for “Z-012”, “ERS12561804” for “ERS12561812”
[16] = as §2, with “Z-006” for “Z-018”, “mouse” for “pig”, “ERS12561806” for “ERS12561817”
[17] = as §1, with “Z-010” for “Z-012”, “ERS12561810” for “ERS12561812”
[18] = as §2, with “Z-011” for “Z-018”, “mouse” for “pig”, “ERS12561811” for “ERS12561817”
[19] = as §2, with “Z-025” for “Z-018”, “rabbit” for “pig”, “ERS12561824” for “ERS12561817”
[20] = as §1, with “Z-027” for “Z-012”, “ERS12561826” for “ERS12561812”
[21] = as §2, with “Z-016” for “Z-018”, “mouse” for “pig”, “ERS12561815” for “ERS12561817”
[22] = as §2, with “Z-024” for “Z-018”, “ERS12561823” for “ERS12561817”
[23] = as §1, with “Z-008” for “Z-012”, “ERS12561808” for “ERS12561812”
[24] = as §2, with “Z-029” for “Z-018”, “rat” for “pig”, “ERS12561828” for “ERS12561817”
[25] = as §2, with “Z-007” for “Z-018”, “rat” for “pig”, “ERS12561807” for “ERS12561817”
[26] = as §2, with “Z-017” for “Z-018”, “mouse” for “pig”, “ERS12561816” for “ERS12561817”
[27] = as §2, with “Z-022” for “Z-018”, “mouse” for “pig”, “ERS12561821” for “ERS12561817”
[28] = as §2, with “Z-019” for “Z-018”, “rat” for “pig”, “ERS12561818” for “ERS12561817”
[29] = as §1, with “Z-026” for “Z-012”, “ERS12561825” for “ERS12561812”
Further: call rule not given here.

Row | SMILES | Bacterial Biotransformation [1] | Bacterial Biotransformation [2] | Bacterial Biotransformation [3] | Bacterial Biotransformation [4] | Bacterial Biotransformation [5] | Bacterial Biotransformation [6] | Bacterial Biotransformation [7] | Bacterial Biotransformation [8] | Bacterial Biotransformation [9] | Bacterial Biotransformation [10] | Bacterial Biotransformation [11] | Bacterial Biotransformation [12] | Bacterial Biotransformation [13] | Bacterial Biotransformation [14] | Bacterial Biotransformation [15] | Bacterial Biotransformation [16] | Bacterial Biotransformation [17] | Bacterial Biotransformation [18] | Bacterial Biotransformation [19] | Bacterial Biotransformation [20] | further results
1 | CN1C[C@H](C(=O)N[C@]2(C)O[C@@]3(O)[C@@H]4CCCN4C(=O)[C@H](Cc4ccccc4)N3C2=O)C[C@@H]2c3cccc4[nH]cc(c34)C[C@H]21.CS(=O)(=O)O [DIHYDROERGOTAMINE MESYLATE] | Compound NOT metabolized | Compound NOT metabolized | Compound NOT metabolized | Compound NOT metabolized | Compound metabolized | Compound NOT metabolized | Compound NOT metabolized | Compound NOT metabolized | Compound NOT metabolized | Compound NOT metabolized | Compound metabolized | Compound NOT metabolized | Compound NOT metabolized | Compound NOT metabolized | Compound NOT metabolized | Compound NOT metabolized | Compound NOT metabolized | Compound NOT metabolized | Compound metabolized | Compound NOT metabolized | Bacterial Biotransformation [21]: Compound NOT metabolized; Bacterial Biotransformation [22]: Compound metabolized; Bacterial Biotransformation [23]: Compound NOT metabolized; Bacterial Biotransformation [24]: Compound NOT metabolized; Bacterial Biotransformation [25]: Compound NOT metabolized; Bacterial Biotransformation [26]: Compound NOT metabolized; Bacterial Biotransformation [27]: Compound metabolized; Bacterial Biotransformation [28]: Compound NOT metabolized; Bacterial Biotransformation [29]: Compound metabolized
2 | CC(=O)SCC(Cc1ccccc1)C(=O)NCC(=O)OCc1ccccc1 (stereo not drawn) [RACECADOTRIL] | Compound metabolized | Compound metabolized | Compound metabolized | Compound metabolized | Compound metabolized | Compound metabolized | Compound metabolized | Compound metabolized | Compound metabolized | Compound metabolized | Compound metabolized | Compound metabolized | Compound metabolized | Compound metabolized | Compound metabolized | Compound metabolized | Compound metabolized | Compound metabolized | Compound metabolized | Compound NOT metabolized | Bacterial Biotransformation [21]: Compound metabolized; Bacterial Biotransformation [22]: Compound metabolized; Bacterial Biotransformation [23]: Compound metabolized; Bacterial Biotransformation [24]: Compound metabolized; Bacterial Biotransformation [25]: Compound metabolized; Bacterial Biotransformation [26]: Compound metabolized; Bacterial Biotransformation [27]: Compound metabolized; Bacterial Biotransformation [28]: Compound metabolized; Bacterial Biotransformation [29]: Compound metabolized
